The results in this text go back to paper PMC7762498, “Demethoxycurcumin analogue DMC-BH exhibits potent anticancer effects on orthotopic glioblastomas” (Aging (Albany NY), 2020).

Test [1] deals with glioblastoma multiforme (GBM) patient derived tumors. Description: Patient-derived tumor xenograft (PDTX) model. The test is classed as in vivo, mice. To be noted: B-NDG mice; DMC-BH 7.5, 15 or 30 mg/kg, TMZ 20 mg/kg. From the text:
In recent years, PDTX models have been used to mimic human tumors. These models are more clinically relevant than cell line-based xenograft models. Thus, we performed an in vivo study in a PDTX tumor model by implanting human glioma samples from a patient donor into B-NDG mice (Figure 7A).
Figure 7 In vivo anti-tumor activity of DMC-BH in the PDTX tumor model. (A) A scheme illustrating the process of creating the patient-derived tumor model. (B) Tumor growth curves of mice after treatment with 7.5 mg/kg, 15 mg/kg or 30 mg/kg DMC-BH or 20 mg/kg TMZ. (C) Average tumor weight at day 21 after different treatments. (D) Quantification of the Ki67-positive area in different treatment groups. (E) Representative H&E-stained tumor slices and Ki67 immunofluorescence labeled tumor tissue sections from different treatments groups. The data are shown as mean ± SD (n = 6).
Surgically resected human glioma tissue was obtained from a cancer patient (#0407002) following an approved Nanjing Medicinal University Institutional Review Board protocol. Within 2 hours of surgical resection, tumor tissues were cut into 1-2 mm fragments and implanted into SCID mice (B-NDG, 6 weeks old, female) using a surgical procedure approved by Nanjing Medicinal University Institutional Animal Care and Use committee. After surgery, tumor growth in the mice was monitored by palpating the abdomen twice per week. Tumors grew to 5-10 mm in diameter in about 8-10 weeks. The SCID mice bearing PDTX tumors were sacrificed, and tumor fragments of 1 to 2 mm in size were implanted into 6-week-old female SCID mice. Over 60% of the mice experienced tumor growth in approximately 6 weeks.

Test [2] has as its system U87 cell line. Put plainly: Subcutaneous human glioma xenograft in SCID mice. The test is classed as in vivo. From the text:
To examine the anti-glioma effects of DMC-BH in vivo, a human glioma-SCID (severe combined immunodeficient) mouse model was established using the U87 cell line. […] The tumor volumes for the control, TMZ, DMC, and DMC-BH mice at day 21 were 1514 mm^3, 587 mm^3, 876 mm^3 and 570 mm^3, respectively. […] As shown in the Kaplan-Meier curves, the median survival was 15, 27, 19 and 35 days for the control, TMZ, DMC and DMC-BH groups, respectively (Figure 3B).
Figure 3 DMC-BH inhibited U87 glioma cell growth in vivo. Subcutaneous tumors generated from U87 cells were allowed to reach a volume of 150-200 mm^3 and were treated with 20 mg/kg TMZ, DMC or DMC-BH for 21 days. (A) Tumor volume was recorded according to treatment group at the indicated day. (B) The survival of brain tumor-bearing mice was recorded and represented in a Kaplan-Meier plot.
1-[4-Hydroxy-3-(pyrrolidin-1-ylmethyl) phenyl]-7-(4-hydroxy-3-methoxyphenyl) hepta-1,6-diene-3,5-dione, named DMC-BH, was constructed by our lab. DMC was obtained from Sigma-Aldrich (St. Louis, MO). To test the anti-glioma effect of DMC-BH in vivo, a xenograft model of human glioma was established. Four-week-old male SCID mice were purchased from Vital River Laboratory Animal Technology Co., Ltd. (Beijing, China). After a 1-week acclimatization, SCID mice were injected subcutaneously in the right flank with 6 × 10^5 […] glioma cells resuspended in 50 μL DMEM media. Treatment was initiated when the subcutaneous tumors reached an average size of 150 mm^3 to 200 mm^3. Mice received intraperitoneal injection of DMC (20 mg/kg/day), DMC-BH (20 mg/kg/day), TMZ (20 mg/kg/day) or vehicle as a control. Tumor diameter was measured every 2 days with calipers, and the tumor volume was calculated (length × width × height × 0.5). All experiments were carried out in keeping with the procedures and protocols of the Animal Ethics Committee of the First People's Hospital of Kunshan.

Each structure is given as a SMILES string.

On to `Cn1nnc2c(C(N)=O)ncn2c1=O` [TMZ, temozolomide], for which the “tumor growth in PDTX model” value in test [1] was “significant tumor regression”. Moreover, the “tumor volume at day 21” value in test [2] (U87 subcutaneous xenograft, 20 mg/kg/day intraperitoneal, 21 days, control 1514 mm^3) is given as 587 mm^3. Besides, in test [2] (U87 xenograft, 20 mg/kg, control 15 days), the median survival was found to be 27 days.
